Where a name gives a salt, the structure may show the parent alone. Read-outs that look alike come from different tables or passages of the source.
Assays:
[1] = Polymorph assessment, slurry maturation in 10 solvents between 5 and 50° C.; format: physicochemical; conditions: 10 solvents, 5-50° C., 24 hours
Procedure: (§1) DR-2186-45-01 (20 mg, PHO Pattern 1+Extra Peaks) was weighed into 10 HPLC vials. To this was added 10 volumes (200 μL) of solvent, a stirrer bar and the samples heated to 50° C. on a Polar Bear heat/cool block (400 RPM). After holding at 50° C. for 30 minutes and observation was made and the samples cooled to 5° C. where a further observation was made. All samples were than subjected to heat/cool cycles between 5 and 50° C. holding for 4 hours at each temperature for 24 hours.
A polymorph assessment was carried out in 10 different solvents using PHO Pattern 1+extra peaks as the input material, maturating a slurry of the salt between 5° C. and 50° C. for 24 hours. The results of the XRPD analysis of the samples can be seen in FIG. 118. The isolated solid was the same as the input material in all cases other than MeOH.
as §1, with “DR-2186-46-01” for “DR-2186-45-01”, “TAR” for “PHO”, “1)” for “1+Extra Peaks)”
A polymorph assessment was carried out in 10 different solvents, maturating a slurry of the salt between 5° C. and 50° C. for 24 hours.

[2] = Dissolution in hot MeOH (phosphate re-crystallisation); format: physicochemical; set-up: key to Observation (sample dissolution in hot MeOH): ✓ = solution; ✓/X = turbid solution; X = suspension
[3] = Storage at 40° C./75% RH for 1 week, XRPD (salts produced during scale-up); format: physicochemical; conditions: salt produced during scale-up
Procedure: Oxalate Salt HPLC Purity, DVS, Stability at 40° C./75% RH (XRPD and HPLC), PSD/Morphology Assessment

[4] = format: physicochemical; conditions: 40° C./75% RH, three days
Procedure: Physical Stability of Salts
Physical stability stress tests were conducted on generated crystalline salts at controlled temperature and relative humidity. The powder samples were stored at 40° C./75% RH for three days. After this time samples were analysed by XRPD to see whether the physical state of salts changed during the storage.

[5] = Thermo-Gravimetric Analysis (TGA), thermal stability; conditions: for thermal stability up to (TGA): nitrogen
Procedure: Thermo—Gravimetric Analysis (TGA)
TGA thermograms were obtained with a TA Instrument Discovery 550 in Al pans. The heating rate used was 10° C./min linear ramp from 25 to 400° C. with a nitrogen purging at a rate of 60 ml/min. TGA thermograms were analysed using TRIOS software.

[6] = Dynamic Vapor Sorption (DVS), salt screen and scale-up salts; format: physicochemical
Procedure: Dynamic Vapor Sorption (DVS)
DVS analyses were performed on TA Instrument DVS Q5000. Samples were added to a pre-tared metallised quartz crucible and run at 25° C. from 40% RH to 90% RH, down to zero and back to 40%. This cycle was repeated in increments of 10% RH.

[7] = Solubility assessment in four different media; format: physicochemical; conditions: for pH after addition of 1.0 ml media at 37° C. / Observation: 250 mg per vial; for Observation: 1.0 ml media at 37° C.; for solubility: 37 °C, aqueous buffer, thermodynamic from solid, four different media
Procedure: Solubility assessments of 5-MeO-DMT oxalate, hydrobromide fumarate and benzoate were performed in four different media: […]

[8] = Oxalate salt solubility by HPLC; format: physicochemical; conditions: for solubility: thermodynamic from solid, by HPLC, mother liquors adjusted to the desired pH, read-out: Solubility (mg/ml) of free base
Procedure: The calibration curve of the free base was prepared between 0.031-0.500 mg/ml and can be seen in FIG. 172.
Oxalate Salt Solubility by HPLC
Mother liquors were adjusted to the desired pH before HPLC quantification.

[9] = Storage at 40° C./75% RH and 25° C./97% RH for 7 days, XRPD and HPLC (Example 3); format: physicochemical
Procedure: FIG. 128. XRPD diffractogram overlay of 5-MeO-DMT Phosphate Pattern 1 before and after storage at 25° C./97% RH and 40° C./75% RH for 7 days.
FIG. 139. XRPD diffractogram overlay of 5-MeO-DMT Tartrate Pattern 1 before and after storage at 25° C./97% RH and 40° C./75% RH for 7 days.
The sample is classed as slightly hygroscopic with a total reversible mass change of 0.3 wt. % between 0-90% RH. The DVS isotherm and DVS kinetic plot can be seen in FIGS. 124 and 125, respectively. The solid form was unchanged after a double-cycle experiment, the XRPD analysis confirming this can be seen in FIG. 126.
The sample is classed as slightly hygroscopic with a total reversible mass change of 0.6 wt. % between 0-90% RH (FIG. 135). The solid-form was unchanged after the double-cycle experiment (FIG. 136).

[10] = DVS double-cycle experiment (Example 3); format: physicochemical

Compound: COc1ccc2[nH]cc(CCN(C)C)c2c1 [DR-2186-45-01, 5-MeO-DMT phosphate]
- dissolution in 10 volumes of solvent ([1]; listed as PHO Pattern 1+Extra Peaks): Non of the samples completely dissolved
- Observation (sample dissolution in hot MeOH) ([2]; 5 volumes of MeOH, 50° C., 1.00 g PHO Pattern 1+extra peaks): X
- Observation (sample dissolution in hot MeOH) ([2]; 8 volumes of MeOH, 50° C.): X
- Observation (sample dissolution in hot MeOH) ([2]; 12 volumes of MeOH, 50° C.): X
- Observation (sample dissolution in hot MeOH) ([2]; 16 volumes of MeOH, 50° C.): X
- Observation (sample dissolution in hot MeOH) ([2]; 18 volumes of MeOH, 50° C.): X
- Observation (sample dissolution in hot MeOH) ([2]; 18 volumes of MeOH, 60° C.): X
- Observation (sample dissolution in hot MeOH) ([2]; 20 volumes of MeOH, 60° C., 150 RPM, Easymax vessel overhead stirring): X
- Observation (sample dissolution in hot MeOH) ([2]; 20 volumes of MeOH, 60° C., scintillation vial): X
- Observation (sample dissolution in hot MeOH) ([2]; 22 volumes of MeOH, 60° C., Easymax vessel overhead stirring): X
- Observation (sample dissolution in hot MeOH) ([2]; 24 volumes of MeOH, 60° C., Easymax vessel overhead stirring): ✓/X
- Observation (sample dissolution in hot MeOH) ([2]; 25 volumes of MeOH, 60° C., 250 RPM, Easymax vessel overhead stirring): ✓
- volumes of MeOH at which dissolution was achieved ([2]; MeOH at 60° C., 1.00 g): 25 volumes

Compound: COc1ccc2[nH]cc(CCN(C)C)c2c1 [Fumarate salt, 5-MeO-DMT fumarate]
- crystalline form after storage (XRPD) [3]: mixture of form/pattern 1 and form/pattern 2
- crystalline form after storage (XRPD) [4]: some additional peaks were also observed
- thermal stability up to (TGA) ([5]; 10° C./min): 150 °C
- change of crystalline form during the DVS experiment (DVS / post-DVS XRPD) [6]: a change in crystalline form occurred
- mass difference between 40% RH and 0% RH ([6]; DVS, salt produced during scale-up): ~2.84%
- pH after addition of 1.0 ml media at 37° C. ([7]; SNF): 5.14
- Observation ([7]; SNF): Clear solution
- solubility ([7]; four media: SNF, pH 1.2, pH 4.5 and pH 6.8 media): ≥ 250 mg/mL
- pH after addition of 1.0 ml media at 37° C. ([7]; pH 1.2 buffer): 5.24
- Observation ([7]; pH 1.2 buffer): Clear solution
- pH after addition of 1.0 ml media at 37° C. ([7]; pH 4.5 buffer): 5.31
- Observation ([7]; pH 4.5 buffer): Clear solution
- pH after addition of 1.0 ml media at 37° C. ([7]; pH 6.8 buffer): 5.79
- Observation ([7]; pH 6.8 buffer): Clear solution

Compound: Br.COc1ccc2[nH]cc(CCN(C)C)c2c1 [Hydrobromide salt, 5-MeO-DMT hydrobromide]
- crystalline form after storage (XRPD) [3]: no change in crystalline form
- crystalline form after storage (XRPD) [4]: No change in crystalline form
- thermal stability up to (TGA) ([5]; 10° C./min): 220 °C
- temperature with 95% of weight remaining (TGA) ([5]; Ramp 10° C./min to 400° C., salt produced during scale-up): 269 °C
- change of crystalline form during the DVS experiment (DVS / post-DVS XRPD) [6]: no change in crystalline form
- hygroscopicity class ([6]; DVS, 25° C.): non-hygroscopic
- solubility compared to other salts [7]: high solubility
- solubility [7]: ≥ 250 mg/mL
- pH after addition of 1.0 ml media at 37° C. ([7]; SNF): 8.13
- Observation ([7]; SNF): Clear solution
- pH after addition of 1.0 ml media at 37° C. ([7]; pH 1.2 buffer): 8.09
- Observation ([7]; pH 1.2 buffer): Clear solution
- pH after addition of 1.0 ml media at 37° C. ([7]; pH 4.5 buffer): 7.65
- Observation ([7]; pH 4.5 buffer): Clear solution
- pH after addition of 1.0 ml media at 37° C. ([7]; pH 6.8 buffer): 7.82
- Observation ([7]; pH 6.8 buffer): Clear solution

Compound: COc1ccc2[nH]cc(CCN(C)C)c2c1 [Oxalate salt, 5-MeO-DMT oxalate]
- crystalline form after storage (XRPD) [3]: no change in crystalline form
- form of isolated solids after solubility experiment (XRPD) [8]: no change in form
- solubility ([8]; fassgf or other biorelevant, SNF): 20.2 mg/mL
- solubility ([8]; pH 4.5 medium, aqueous buffer, pH 4.5): 35.5 mg/mL
- solubility ([8]; pH 6.8 medium, aqueous buffer, pH 6.8): 26.9 mg/mL
- change of crystalline form during the DVS experiment (DVS / post-DVS XRPD) [6]: no change in the crystalline form

Compound: COc1ccc2[nH]cc(CCN(C)C)c2c1 [Tartrate Pattern 1, 5-MeO-DMT tartrate]
- change by XRPD or HPLC after storage ([9]; 25° C./97% RH): no change
- Static Storage 7 days - 40° C./75% RH, XRPD ([9]; 40° C./75% RH): KRPD-TAR Pattern 1
- change by XRPD or HPLC after storage ([9]; 40° C./75% RH): no change
- Static Storage 7 days - 40° C./75% RH, HPLC ([9]; 40° C./75% RH, HPLC purity): HPLC-97.8%
- dissolution in 10 volumes of solvent [1]: No dissolution was observed
- TGA mass loss before decomposition [5]: No mass loss observed in sample before
- start of decomposition / complete mass loss (TGA) ([5]; 10° C./min): 175 °C
- solid form after double-cycle DVS experiment (XRPD) [10]: unchanged
- total reversible mass change between 0-90% RH ([10]; DVS): 0.6 wt. %
- hygroscopicity class ([10]; DVS 0-90% RH, Example 3): slightly hygroscopic (Pharmaceuticals that pick up between 0.2% and 2.0% moisture at 80% RH are considered slightly hygroscopic)
- GVS total mass change as mol eq. water ([10]; from 0-90% RH): RH (0.12 mol eq. of water) and is reversible with mol eq. water
- GVS total mass change ([10]; from 0-90% RH, double cycle): Total mass change of 0.58 wt. % from 0-90%
- Solid form of the material after GVS by XRPD ([10]; post GVS): unchanged by XRPD.

Reference: US11773063B1, “Pharmaceutically acceptable salts and compositions thereof” (priority 2022, dated 2023)
